{
  "source": "patent US20080200393A1",
  "about": "“Method and Composition For Treating Angiogenesis and For Preventing Cancer Progression and Metastasis Comprising a Prostate Secretory Protein (Psp94) Family Member” (Ambrillia Biopharma Inc., priority 2004, published 2008)",
  "tested_on": "proMMP-2",
  "assay": "Gelatin zymography of HUVEC conditioned media",
  "type": "cell-based, Human",
  "experimental": "Zymography. Zymography is a technique generally used to analyze the activity of matrix metalloproteinases (MMPs) in biological samples. It involves the electrophoretic separation of proteins under denaturing (Sodium Dodecyl Sulfate (SDS)) but non-reducing conditions through a polyacrylamide gel containing gelatin (for example, 10% gel containing 1 mg/ml gelatin for MMP-9 and MMP-2 assays). The resolved proteins are re-natured by exchanging SDS with a non-ionic detergent such as Triton X-100 and the gel is incubated in an incubation buffer for activation of MMP-2 and MMP-9 (for example at 37° C. for 18 hrs). The gel is stained with Coomassie blue and the MMP-2 and MMP-9 bands may be visualized as clear bands against a blue background (i.e., the MMPs degrade the gelatin and are visualized as clear bands; pro MMP-2 is 68 kDa and pro-MMP-9 is 92 kDa). These bands can be quantified using densitometry. For example, prior to stimulation, quiescent HUVEC were serum-starved for 16 h in the presence or absence of PCK3145 or PD98059 and then stimulated with VEGF. The conditioned media were collected 24 h after stimulation, and clarified by centrifugation. Identical volume of conditioned media were mixed with non reducing Laemmli sample buffer and subjected to 7.5% SDS-polyacrylamide gels containing 1 mg/ml gelatin (Sigma). The gels were then incubated for 30 min at room temperature twice in 2.5% (v/v) Triton X-100 and rinsed five times in doubly distilled water. The gels were incubated at 37° C. for a further 18 h in 200 mM NaCl/5 mM CaCl2/0.02% (v/v) Brij-35/50 mM Tris/HCl buffer (pH 7.6), then stained with 0.1% Coomassie Brilliant Blue R-250, followed by destaining in 10% (v/v) acetic acid/30% (v/v) methanol in water. Gelatinolytic activity was detected as unstained bands on a blue background.\nThe effect of the PCK3145 derivative (SEQ ID NO.:7) on MMP extracellular levels was thus assessed by gelatin-zymography in the conditioned media of serum-starved HUVEC. After 16 hours of starvation, HUVEC were stimulated with VEGF in the presence or not of the PCK3145 derivative. […]",
  "note": "Where no end group is shown, it is not given here.",
  "data": [
    {"sequence": "EWQTDNCETCTCYET (cysteine pairing not given here) [PCK3145 derivative, PCK3145 derivative with acetylaminomethyl groups on the three cysteines]", "values": [
      {"measurement": "inhibition of VEGF-induced proMMP-2 secretion", "setting": "HUVEC, 300 μg/ml", "result": "approximately 50%"},
      {"measurement": "downregulation of basal proMMP-2 levels in the extracellular media", "setting": "serum-starved HUVEC, 24 hours treatment", "result": "approximately 35%"}
    ]}
  ]
}
